In ChEMBL document CHEMBL4000170 (Eur J Med Chem, 2017):
The source made the active and inactive calls. The calls are words filed in the database; no cut-off is given here.

Assays:
DU-145 = experiment: Antiproliferative activity against AR negative human DU145 cells after 3 days by MTT assay; assay type: functional, cell-based; settings: DU-145, 72 h
[1] = Antiproliferative activity against human LNCaP-hr cells expressing AR T877A mutant after 3 days by MTT assay; assay type: functional, cell-based; settings: 72 h
[2] = target: T1, Androgen receptor (Homo sapiens) (UniProt P10275); settings: at 10 µM
T1 sequence (whole entry): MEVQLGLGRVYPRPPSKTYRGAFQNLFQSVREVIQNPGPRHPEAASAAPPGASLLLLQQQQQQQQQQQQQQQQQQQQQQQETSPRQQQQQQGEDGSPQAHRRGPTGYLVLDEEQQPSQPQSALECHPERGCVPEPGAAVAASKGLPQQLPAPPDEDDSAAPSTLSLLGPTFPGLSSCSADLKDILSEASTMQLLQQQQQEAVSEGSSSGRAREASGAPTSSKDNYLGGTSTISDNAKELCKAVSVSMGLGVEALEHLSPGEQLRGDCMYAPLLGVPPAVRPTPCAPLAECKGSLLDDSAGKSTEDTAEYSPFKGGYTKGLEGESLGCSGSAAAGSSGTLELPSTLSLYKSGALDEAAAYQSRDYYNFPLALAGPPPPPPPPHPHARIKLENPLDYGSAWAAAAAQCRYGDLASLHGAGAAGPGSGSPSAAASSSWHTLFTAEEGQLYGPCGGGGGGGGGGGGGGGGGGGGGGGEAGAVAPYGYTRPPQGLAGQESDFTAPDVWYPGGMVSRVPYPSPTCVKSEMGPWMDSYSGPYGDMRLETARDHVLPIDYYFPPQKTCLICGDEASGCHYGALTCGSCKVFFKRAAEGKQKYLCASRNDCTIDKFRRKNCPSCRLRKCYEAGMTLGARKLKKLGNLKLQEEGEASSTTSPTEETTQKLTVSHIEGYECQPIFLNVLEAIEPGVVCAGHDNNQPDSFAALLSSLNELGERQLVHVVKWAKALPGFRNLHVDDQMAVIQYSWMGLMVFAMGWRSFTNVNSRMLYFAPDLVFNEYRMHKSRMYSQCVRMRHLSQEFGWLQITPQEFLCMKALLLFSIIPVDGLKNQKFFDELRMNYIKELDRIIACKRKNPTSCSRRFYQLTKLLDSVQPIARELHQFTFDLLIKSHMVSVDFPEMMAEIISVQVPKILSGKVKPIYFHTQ
Description: Antagonist activity at androgen receptor (unknown origin) expressed in COS-7 cells assessed as inhibition of R1881-induced MMTV promoter activity at 10 uM by luciferase reporter gene assay relative to control

[3] = Displacement of Fluormone-AL green from rat GST/His-tagged AR LBD mutant after 4 hrs by Fluorescence polarization assay
[4] = tested on: Androgen receptor (Homo sapiens), P10275 [T878A]; settings: at 10 µM
Androgen receptor (Homo sapiens), P10275 [T878A], sequence (P10275 whole entry T878A): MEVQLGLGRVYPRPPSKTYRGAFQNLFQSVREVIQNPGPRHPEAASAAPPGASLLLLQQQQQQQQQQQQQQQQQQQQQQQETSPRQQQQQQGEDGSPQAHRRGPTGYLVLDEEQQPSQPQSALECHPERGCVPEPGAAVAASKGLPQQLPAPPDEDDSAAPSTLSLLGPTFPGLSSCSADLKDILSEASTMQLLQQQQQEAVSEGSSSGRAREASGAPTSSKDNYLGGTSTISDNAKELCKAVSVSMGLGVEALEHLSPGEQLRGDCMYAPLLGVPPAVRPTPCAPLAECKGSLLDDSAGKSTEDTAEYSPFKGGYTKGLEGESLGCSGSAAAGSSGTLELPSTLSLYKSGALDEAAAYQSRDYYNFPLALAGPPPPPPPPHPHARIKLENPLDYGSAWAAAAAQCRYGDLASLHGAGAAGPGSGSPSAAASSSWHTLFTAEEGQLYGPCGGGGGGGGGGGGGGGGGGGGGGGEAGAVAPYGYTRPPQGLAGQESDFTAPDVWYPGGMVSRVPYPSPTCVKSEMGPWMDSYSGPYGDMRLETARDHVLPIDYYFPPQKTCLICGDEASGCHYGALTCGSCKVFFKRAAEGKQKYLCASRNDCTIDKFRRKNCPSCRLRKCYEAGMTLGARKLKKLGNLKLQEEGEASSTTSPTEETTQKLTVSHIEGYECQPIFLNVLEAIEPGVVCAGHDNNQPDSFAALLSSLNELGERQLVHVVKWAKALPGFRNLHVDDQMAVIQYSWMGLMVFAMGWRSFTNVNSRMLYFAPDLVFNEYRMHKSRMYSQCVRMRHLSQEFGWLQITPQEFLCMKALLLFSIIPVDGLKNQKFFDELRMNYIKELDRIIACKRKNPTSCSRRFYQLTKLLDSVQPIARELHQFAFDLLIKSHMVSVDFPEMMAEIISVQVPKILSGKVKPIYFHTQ
Description: Inhibition of R1881-induced AR T877A mutant nuclear translocation in human LNCAP cells assessed as reduction in ratio of nuclear to cytoplasmic AR levels at 10 uM after 12 hrs by DAPI-staining based fluorescent microscopy

Compound | IC50 (DU-145) | IC50 [1] | inhibition [2] | IC50 [3] | inhibition [4]
CNC(=O)c1cc2c(cc1F)N1C(=S)N(c3ccc(C#N)c(C(F)(F)F)c3)C(=O)C1C2 (configuration not stated) | > 200 µM | 58.2 µM | inactive | – | –
CC(C)CNC(=O)c1cc2c(cc1F)N1C(=S)N(c3ccc(C#N)c(C(F)(F)F)c3)C(=O)C1C2 (configuration not stated) | > 200 µM | 70.7 µM | inactive | – | –
N#Cc1ccc(N2C(=O)C3Cc4ccc(C(=O)NCCO)cc4N3C2=S)cc1C(F)(F)F (configuration not stated) | 175 µM | 25.8 µM | 37% | – | –
N#Cc1ccc(N2C(=O)C3Cc4cc(N)ccc4N3C2=S)cc1C(F)(F)F (configuration not stated) | > 200 µM | 99.1 µM | 23.4% | – | –
N#Cc1ccc(N2C(=O)C3Cc4cc(Br)ccc4N3C2=S)cc1C(F)(F)F (configuration not stated) | > 200 µM | 83.7 µM | 57.1% | – | –
CCNC(=O)c1cc2c(cc1F)N1C(=S)N(c3ccc(C#N)c(C(F)(F)F)c3)C(=O)C1C2 (configuration not stated) | 115 µM | 54.1 µM | inactive | – | –
N#Cc1ccc(N2C(=O)C3Cc4ccc(I)cc4N3C2=S)cc1C(F)(F)F (configuration not stated) | 190 µM | 71.9 µM | 58.4% | – | –
CCCNC(=O)c1ccc2c(c1)N1C(=S)N(c3ccc(C#N)c(C(F)(F)F)c3)C(=O)C1C2 (configuration not stated) | 114 µM | 90.8 µM | inactive | – | –
N#Cc1ccc(N2C(=O)C3Cc4ccc(N)cc4N3C2=S)cc1C(F)(F)F (configuration not stated) | 67 µM | 32.6 µM | 29% | – | –
N#Cc1ccc(N2C(=O)C3Cc4cc([N+](=O)[O-])ccc4N3C2=S)cc1C(F)(F)F (configuration not stated) | 78.4 µM | 64.7 µM | 21.8% | – | –
N#Cc1ccc(N2C(=O)C3Cc4ccc(Br)cc4N3C2=S)cc1C(F)(F)F (configuration not stated) | > 200 µM | 30.4 µM | 68.3% | 2.98 µM | –
N#Cc1ccc(N2C(=O)C3Cc4ccc([N+](=O)[O-])cc4N3C2=S)cc1C(F)(F)F (configuration not stated) | > 200 µM | 26.9 µM | 58.2% | 4.49 µM | –
C[C@]1(O)CC[C@H]2[C@@H]3CCC4=CC(=O)CCC4=C3C=C[C@@]21C | – | – | inactive | – | –
N#Cc1ccc(N2C(=O)C3Cc4cc(C(=O)NC5CCCCC5)c(F)cc4N3C2=S)cc1C(F)(F)F (configuration not stated) | 126 µM | 44.9 µM | 55.1% | – | –
CCNC(=O)c1ccc2c(c1)N1C(=S)N(c3ccc(C#N)c(C(F)(F)F)c3)C(=O)C1C2 (configuration not stated) | 105 µM | 35.3 µM | 2.1% | – | –
CNC(=O)c1ccc(N2C(=S)N(c3ccc(C#N)c(C(F)(F)F)c3)C(=O)C2(C)C)cc1F [ENZALUTAMIDE] | – | 12.5 µM | – | 1.35 µM | –
CCCCNC(=O)c1ccc2c(c1)N1C(=S)N(c3ccc(C#N)c(C(F)(F)F)c3)C(=O)C1C2 (configuration not stated) | 58 µM | 77.2 µM | inactive | – | –
N#Cc1ccc(N2C(=O)C3Cc4ccc(C(=O)NC5CCCCC5)cc4N3C2=S)cc1C(F)(F)F (configuration not stated) | 101 µM | 29.3 µM | 22.9% | – | –
N#Cc1ccc(N2C(=O)C3Cc4ccc(Cl)cc4N3C2=S)cc1C(F)(F)F (configuration not stated) | > 200 µM | 27.9 µM | 71.9% | 2.33 µM | Active
CCCNC(=O)c1cc2c(cc1F)N1C(=S)N(c3ccc(C#N)c(C(F)(F)F)c3)C(=O)C1C2 (configuration not stated) | > 200 µM | 11.2 µM | inactive | – | –
N#Cc1ccc(N2C(=O)C3CCCN3C2=S)cc1C(F)(F)F (configuration not stated) | > 200 µM | 87.7 µM | 32% | – | –
N#Cc1ccc(N2C(=O)C3Cc4ccccc4N3C2=S)cc1C(F)(F)F (configuration not stated) | 143 µM | 15.3 µM | – | – | –
N#Cc1ccc(N2C(=O)c3cc4ccccc4n3C2=S)cc1C(F)(F)F | 146 µM | 33.4 µM | 21.1% | – | –
CC(O)CNC(=O)c1ccc2c(c1)N1C(=S)N(c3ccc(C#N)c(C(F)(F)F)c3)C(=O)C1C2 (configuration not stated) | > 200 µM | 48.4 µM | 39.3% | – | –
N#Cc1ccc(N2C(=O)C3CC(O)CN3C2=S)cc1C(F)(F)F (configuration not stated) | > 200 µM | 52.6 µM | 1.9% | – | –
CNC(=O)c1ccc2c(c1)N1C(=S)N(c3ccc(C#N)c(C(F)(F)F)c3)C(=O)C1C2 (configuration not stated) | > 200 µM | 144 µM | 13.1% | – | –
CCCCNC(=O)c1cc2c(cc1F)N1C(=S)N(c3ccc(C#N)c(C(F)(F)F)c3)C(=O)C1C2 (configuration not stated) | 175 µM | 67.3 µM | inactive | – | –
N#Cc1ccc(N2C(=O)C3CC4CCCCC4N3C2=S)cc1C(F)(F)F (configuration not stated) | 128 µM | 36.2 µM | 50.5% | – | –
N#Cc1ccc(N2C(=O)C3Cc4cc(Cl)ccc4N3C2=S)cc1C(F)(F)F (configuration not stated) | 160 µM | 46 µM | 6.7% | – | –
